# Source: US12370235B2, “Synthetic, non-natural antimicrobial peptides inspired by Staphylococcus auricularis delta toxin” (University of Saskatchewan, priority 2021, dated 2025)
# Ends that are not written are not given here.
# How the values were obtained:
# [1] = test system: Mannheimia haemolytica ATCC 33393; test: MIC, broth dilution; assay type: cell-based; conditions: Table 11; highest concentration 25 μg/mL
# Summary of the method: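 Peptides (95% purity) in 2-fold dilution series were mixed with M. haemolytica diluted to OD 6×10^−4 in cation-adjusted Mueller Hinton broth and incubated standing overnight at 37 °C. MIC was the lowest concentration with no visible growth.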
# C. albicans Y537 = test: MIC, YPD broth; assay type: cell-based, Candida albicans; conditions: Table 8
# C. albicans MYA-2876 = test: MIC, YPD broth; assay type: cell-based, Candida albicans; conditions: Table 8
# Summary of the method: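 Minimum inhibitory concentrations against Candida albicans were determined in YPD broth (10 g/L yeast extract, 20 g/L peptone, 20 g/L dextrose) using peptides of 95% purity. A 180 μl volume of diluted yeast was combined with 20 μl of peptide in a 2-fold dilution series in 96-well plates, with sterile water as control, then incubated standing overnight at 37° C.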
# Candida krusei AR 397 = test: MIC, YPD broth, CDC and FDA AR Candida isolate panel; assay type: cell-based
# Summary of the method: (§1)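 Peptide purity was 95%. Doubling dilutions were tested against yeast set at an optical density of […], with overnight standing incubation at 37° C and a sterile-water control.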
# Kodamae ohmeri AR 396 = test: as above; assay type: cell-based
# Summary of the method: as §1
# [2] = test system: Candida lusitaniae AR 398; test: as above; assay type: cell-based
# Summary of the method: as §1
# [3] = test system: Saccharomyces cerevisiae AR 400; test: as above; assay type: cell-based
# Summary of the method: as §1
# [4] = test system: Candida duobushaemulonii AR 392; test: as above; assay type: cell-based
# Summary of the method: as §1
# [5] = test system: S. aureus ATCC 33592 (MRSA SCCmec type III); test: MIC, broth dilution; assay type: cell-based, Staphylococcus aureus; conditions: Table 5; STIP3 variants, highest concentration 100 μg/mL
# Summary of the method: (§2)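 Peptides of 95% purity tested as 2-fold dilution series against bacteria diluted to OD 6×10^−4 in cation-adjusted Mueller Hinton broth. Standing cultures incubated overnight at 37° C; MIC is the lowest concentration with no visible growth.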
# S. aureus ATCC 29213 = test: MIC, broth dilution; assay type: cell-based, Staphylococcus aureus; conditions: Table 5; STIP3 variants, highest concentration 100 μg/mL
# Summary of the method: as §2
# [6] = test system: S. aureus ATCC BAA-42 (MRSA SCCmec type VI); test: MIC, broth dilution; assay type: cell-based, Staphylococcus aureus; conditions: Table 5; STIP3 variants, highest concentration 100 μg/mL
# Summary of the method: as §2
# [7] = test system: S. aureus ATCC BAA-44 (MRSA SCCmec type I); test: MIC, broth dilution; assay type: cell-based, Staphylococcus aureus; conditions: Table 5; STIP3 variants, highest concentration 100 μg/mL
# Summary of the method: as §2
# [8] = test system: S. aureus ATCC BAA-41 (MRSA SCCmec type II); test: MIC, broth dilution; assay type: cell-based, Staphylococcus aureus; conditions: Table 5; STIP3 variants, highest concentration 100 μg/mL
# Summary of the method: as §2
# [9] = test system: S. aureus ATCC BAA-2094 (MRSA SCCmec type V); test: MIC, broth dilution; assay type: cell-based, Staphylococcus aureus; conditions: Table 5; STIP3 variants, highest concentration 100 μg/mL
# Summary of the method: as §2
# [10] = test system: S. aureus ATCC BAA-1683 (MRSA SCCmec type IV); test: MIC, broth dilution; assay type: cell-based, Staphylococcus aureus; conditions: Table 5; STIP3 variants, highest concentration 100 μg/mL
# Summary of the method: as §2
# [11] = test system: S. aureus ATCC BAA-2313 (MRSA SCCmec type XI); test: MIC, broth dilution; assay type: cell-based, Staphylococcus aureus; conditions: Table 5; STIP3 variants, highest concentration 100 μg/mL
# Summary of the method: as §2
# [12] = test system: Candida haemulonii AR 393; test: MIC, YPD broth, CDC and FDA AR Candida isolate panel; assay type: cell-based; conditions: Table 9 below the line: only 200 or 100 μg/mL tested; values reported as 100 are ≤100 μg/mL
# Summary of the method: as §1
# [13] = test system: Candida haemulonii AR 395; test: as above; assay type: cell-based; conditions: Table 9 below the line: only 200 or 100 μg/mL tested; values reported as 100 are ≤100 μg/mL
# Summary of the method: as §1
# [14] = test system: Candida duobushaemulonii AR 394; test: as above; assay type: cell-based; conditions: Table 9 below the line: only 200 or 100 μg/mL tested; values reported as 100 are ≤100 μg/mL
# Summary of the method: as §1
# [15] = test system: Saccharomyces cerevisiae AR 399; test: as above; assay type: cell-based; conditions: Table 9 below the line: only 200 or 100 μg/mL tested; values reported as 100 are ≤100 μg/mL
# Summary of the method: as §1
# [16] = test system: Candida duobushaemulonii AR 391; test: as above; assay type: cell-based; conditions: Table 9 below the line: only 200 or 100 μg/mL tested; values reported as 100 are ≤100 μg/mL
# Summary of the method: as §1
# [17] = Table 9 top part: titrations from 1.56 to 100 μg/mL
# [18] = Table 9 below the line: only 200 or 100 μg/mL tested, values reported as 100 are ≤100 μg/mL
Sequence,MIC (μg/mL) M. haemolytica [1] [µg/mL],MIC C. albicans MYA-2876 (C. albicans MYA-2876),MIC S. aureus ATCC 33592 (III) [5] [mg/L],MIC S. aureus ATCC 29213 (S. aureus ATCC 29213) [mg/L],MIC S. aureus ATCC BAA 42 (VI) [6] [mg/L],MIC S. aureus ATCC BAA 44 (I) [7] [mg/L],MIC S. aureus ATCC BAA 41 (II) [8] [mg/L],MIC S. aureus ATCC BAA 2094 (V) [9] [mg/L],MIC S. aureus ATCC BAA 1683 (IV) [10] [mg/L],MIC S. aureus ATCC BAA 2313 (XI) [11] [mg/L],also measured
"TVKALVKWILKTVAKFW [STIP3-21, TVKALVKWILKTVAKFW]",12.5,> (> symbol indicates that no inhibition was observed at the highest concentration of peptide tested: 100 μg/mL),25,25,25,25,25,12.5,12.5,12.5,"MIC C. albicans Y537 (C. albicans Y537): > (> symbol indicates that no inhibition was observed at the highest concentration of peptide tested: 100 μg/mL); MIC (μg/mL) Candida krusei AR 397 (Candida krusei AR 397; [17]): 100 µg/mL; MIC (μg/mL) Kodamae ohmeri AR 396 (Kodamae ohmeri AR 396; [17]): > (MIC values reported at the top of the table (above the double line) are based on titrations from 1.56 to 100 μg/mL); MIC (μg/mL) Candida lusitaniae AR 398 [2, 17]: 50 µg/mL; MIC (μg/mL) Saccharomyces cerevisiae AR 400 [3, 17]: 200 µg/mL; MIC (μg/mL) Candida duobushaemulonii AR 392 [4, 17]: > (MIC values reported at the top of the table (above the double line) are based on titrations from 1.56 to 100 μg/mL)"
"TVRALVRWILRTVARFA [STIP3-23, TVRALVRWILRTVARFA]",12.5,> (> symbol indicates that no inhibition was observed at the highest concentration of peptide tested: 100 μg/mL),25,25,50,25,6.25,50,25,25,"MIC (μg/mL) Candida haemulonii AR 393 [12]: > (values below the line were determined using two concentrations of peptide 200 or 100 μg/mL); MIC (μg/mL) Candida haemulonii AR 395 [13]: > (values below the line were determined using two concentrations of peptide 200 or 100 μg/mL); MIC (μg/mL) Candida krusei AR 397 (Candida krusei AR 397; [18]): > (values below the line were determined using two concentrations of peptide 200 or 100 μg/mL); MIC (μg/mL) Kodamae ohmeri AR 396 (Kodamae ohmeri AR 396; [18]): > (values below the line were determined using two concentrations of peptide 200 or 100 μg/mL); MIC (μg/mL) Candida lusitaniae AR 398 [2, 18]: ≤ 100 µg/mL; MIC (μg/mL) Candida duobushaemulonii AR 394 [14]: > (values below the line were determined using two concentrations of peptide 200 or 100 μg/mL); MIC (μg/mL) Saccharomyces cerevisiae AR 400 [3, 18]: ≤ 100 µg/mL; MIC (μg/mL) Saccharomyces cerevisiae AR 399 [15]: ≤ 100 µg/mL; MIC (μg/mL) Candida duobushaemulonii AR 392 [4, 18]: > (values below the line were determined using two concentrations of peptide 200 or 100 μg/mL); MIC (μg/mL) Candida duobushaemulonii AR 391 [16]: > (values below the line were determined using two concentrations of peptide 200 or 100 μg/mL)"
